Test systems include OVCAR-5 ovarian; HCC-2998 colon; PC-3 prostate; MCF7 breast; LOX IMVI melanoma; A549 NSCLC; SF-539 CNS; SNB-19 CNS; COLO 205 colon; MOLT-4 leukemia; MDA-N; NCI-H23 lung; MALME-3M melanoma; SF-295 CNS; HCT-15 colon; 786-0 renal; RPMI-8226 leukemia; TK-10 renal; UACC-257 melanoma.
Holding throughout (assay): NCI anticancer screen, dose series, 48 h

The text below walks through data of PubChem BioAssay (NCI).

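These data come from cells grown in 96-well plates and exposed to compound for 48 hours at five concentrations. TGI is the concentration that stops growth completely.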

Regarding `CC(C)=CCC[C@@H](C)C1=C(N)C(O)=C(C)C(=O)C1=O`, the TGI in the test on OVCAR-5 ovarian, with HCC-2998 colon, with PC-3 prostate, in the test with MCF7 breast, in the test with LOX IMVI melanoma and in the test on A549 NSCLC was greater than 75 µM in each case. The TGI is greater than 75 µM with SF-539 CNS; greater than 75 µM in the test on SNB-19 CNS; greater than 67.9 µM in the test with COLO 205 colon; greater than 67.5 µM in the test with MOLT-4 leukemia; greater than 75 µM in the test on MDA-N; greater than 75 µM with NCI-H23 lung. Besides, the TGI in the test with MALME-3M melanoma, in the test with SF-295 CNS, with HCT-15 colon, in the test on 786-0 renal, in the test on RPMI-8226 leukemia and in the test on TK-10 renal was greater than 75 µM each time. The same molecule came in with a TGI in the test on UACC-257 melanoma greater than 75 µM.
`CCN(C(=O)N[C@@H](CC(C)C)C(=O)NCC(=O)OC)c1ccccc1`: the TGI with OVCAR-5 ovarian, with HCC-2998 colon, in the test on PC-3 prostate, in the test with MCF7 breast, with LOX IMVI melanoma and in the test on A549 NSCLC was greater than 100 µM throughout. Moreover, the TGI in the test with SF-539 CNS, with SNB-19 CNS, with COLO 205 colon, in the test on MOLT-4 leukemia, in the test with MDA-N and in the test on NCI-H23 lung was greater than 100 µM in each case. The TGI in the test with MALME-3M melanoma is 51.1 µM; in the test with SF-295 CNS it was greater than 100 µM; with HCT-15 colon, greater than 100 µM; in the test on 786-0 renal it was greater than 100 µM; in the test on RPMI-8226 leukemia, greater than 100 µM; in the test with TK-10 renal, greater than 100 µM. This molecule also registered a TGI in the test on UACC-257 melanoma of 61.9 µM.
